Test system: KRAS patient-derived spheroids with HUVEC/MSC, viability
Assay: Anticancer human tumor 519858-162-T-J1-PDC patient-derived colon adenocarcinoma cell line growth inhibition [KRAS2]
Conditions: for viability, T/C: stronger effect = lower value
Method in brief: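 KRAS-mutant tumor cells were grown as spheroids with HUVEC endothelial cells and human MSCs as stroma. Targeted agents were tested alone and with KRAS pathway inhibitors. Doses started at or near clinical Cmax, or 10 microM, descending half-log.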

[1] = curve of first compound, second compound 0.1 µM
[2] = curve of first compound, second compound 0.316 µM
[3] = curve of first compound, second compound 1 µM
[4] = curve of first compound, second compound 3.16 µM
[5] = second compound 0.1 µM, first compound 0.00316 µM
[6] = second compound 0.1 µM, first compound 0.01 µM
[7] = second compound 0.1 µM, first compound 0.0316 µM
[8] = second compound 0.1 µM, first compound 0.1 µM
[9] = second compound 0.316 µM, first compound 0.00316 µM
[10] = second compound 0.316 µM, first compound 0.01 µM
[11] = second compound 0.316 µM, first compound 0.0316 µM
[12] = second compound 0.316 µM, first compound 0.1 µM
[13] = second compound 1 µM, first compound 0.00316 µM
[14] = second compound 1 µM, first compound 0.01 µM
[15] = second compound 1 µM, first compound 0.0316 µM
[16] = second compound 1 µM, first compound 0.1 µM
[17] = second compound 3.16 µM, first compound 0.00316 µM
[18] = second compound 3.16 µM, first compound 0.01 µM
[19] = second compound 3.16 µM, first compound 0.0316 µM
[20] = second compound 3.16 µM, first compound 0.1 µM
[21] = curve of first compound, second compound 10 µM
[22] = second compound 0.1 µM, first compound 0.316 µM
[23] = second compound 0.1 µM, first compound 1 µM
[24] = second compound 0.1 µM, first compound 3.16 µM
[25] = second compound 0.1 µM, first compound 10 µM
[26] = second compound 0.316 µM, first compound 0.316 µM
[27] = second compound 0.316 µM, first compound 1 µM
[28] = second compound 0.316 µM, first compound 3.16 µM
[29] = second compound 0.316 µM, first compound 10 µM
[30] = second compound 1 µM, first compound 0.316 µM
[31] = second compound 1 µM, first compound 1 µM
[32] = second compound 1 µM, first compound 3.16 µM
[33] = second compound 1 µM, first compound 10 µM
[34] = second compound 3.16 µM, first compound 0.316 µM
[35] = second compound 3.16 µM, first compound 1 µM
[36] = second compound 3.16 µM, first compound 3.16 µM
[37] = second compound 3.16 µM, first compound 10 µM
[38] = second compound 10 µM, first compound 0.0316 µM
[39] = second compound 10 µM, first compound 0.1 µM
[40] = second compound 10 µM, first compound 0.316 µM
[41] = second compound 10 µM, first compound 1 µM
[42] = second compound 10 µM, first compound 3.16 µM
[43] = second compound 10 µM, first compound 10 µM
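Further: compound exposure lasted seven days before readout.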
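Wherever viability, T/C is given: 100% = DMSO vehicle control viability.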

`CC(C)n1nc(-c2ccc3oc(N)nc3c2)c2c(N)ncnc21` + C=CC(=O)N1CCN(c2nc(OCC3CCCN3C)nc3c2CCN(c2cccc4cccc(C)c24)C3)CC1CC#N was tested, and the IC50 (curve of first compound, second compound 0.0316 µM) was greater than 100 nM, the IC50 [1] was 35 nM and the IC50 [2] was 79.8 nM. The IC50 [3] was greater than 100 nM, the IC50 [4] was 55.7 nM and the viability, T/C (second compound 0.0316 µM, first compound 0.000316 µM) was 97.9%. It also gave a viability, T/C (second compound 0.0316 µM, first compound 0.001 µM) of 82%, a viability, T/C (second compound 0.0316 µM, first compound 0.00316 µM) of 81.8% and a viability, T/C (second compound 0.0316 µM, first compound 0.01 µM) of 63.5%. The viability, T/C (second compound 0.0316 µM, first compound 0.0316 µM) was 61.8%, the viability, T/C (second compound 0.0316 µM, first compound 0.1 µM) was 57.7% and the viability, T/C (second compound 0.1 µM, first compound 0.000316 µM) was 103%. It also gave a viability, T/C (second compound 0.1 µM, first compound 0.001 µM) of 104%, a viability, T/C [5] of 74.3% and a viability, T/C [6] of 70.2%. It also gave a viability, T/C [7] of 50.9%, a viability, T/C [8] of 39.2% and a viability, T/C (second compound 0.316 µM, first compound 0.000316 µM) of 74.6%. The viability, T/C (second compound 0.316 µM, first compound 0.001 µM) was 83.8%, the viability, T/C [9] was 78.3% and the viability, T/C [10] was 66.8%. It also gave a viability, T/C [11] of 64.4%, a viability, T/C [12] of 46.7% and a viability, T/C (second compound 1 µM, first compound 0.000316 µM) of 81%. It also gave a viability, T/C (second compound 1 µM, first compound 0.001 µM) of 82.7%, a viability, T/C [13] of 78.7% and a viability, T/C [14] of 68.2%. It also gave a viability, T/C [15] of 84.6%, a viability, T/C [16] of 66.2% and a viability, T/C (second compound 3.16 µM, first compound 0.000316 µM) of 80.6%. For the same molecule, the viability, T/C (second compound 3.16 µM, first compound 0.001 µM) was 76.4%, the viability, T/C [17] was 76% and the viability, T/C [18] was 67%. The viability, T/C [19] was 63% and the viability, T/C [20] was 38.6%.

With `COc1cc(Nc2ncc3c(n2)-c2ccc(Cl)cc2C(c2c(F)cccc2OC)=NC3)ccc1C(=O)O` the viability, T/C (compound 0.1 µM) was 74.8% [middle of 5 runs] and the IC50 (curve of compound) was greater than 10000 nM.

With `CC1(C)CCC(CN2CCN(c3ccc(C(=O)NS(=O)(=O)c4ccc(NCC5CCOCC5)c([N+](=O)[O-])c4)c(Oc4cnc5[nH]ccc5c4)c3)CC2)=C(c2ccc(Cl)cc2)C1` + CC1OCC2(CCN(c3cnc(Sc4ccnc(N)c4Cl)c(N)n3)CC2)C1N the IC50 [1] was greater than 10000 nM, the IC50 [2] was greater than 10000 nM and the IC50 [3] was 4320 nM. The IC50 [4] was 2980 nM, the IC50 [21] was 3650 nM and the viability, T/C [7] was 81.4%. It also gave a viability, T/C [8] of 93.4%, a viability, T/C [22] of 91.2% and a viability, T/C [23] of 82.3%. It also gave a viability, T/C [24] of 72.6%, a viability, T/C [25] of 78.2% and a viability, T/C [11] of 72.6%. It also gave a viability, T/C [12] of 71.3%, a viability, T/C [26] of 89.1% and a viability, T/C [27] of 69.5%. For the same molecule, the viability, T/C [28] was 67.8%, the viability, T/C [29] was 57.4% and the viability, T/C [15] was 65.7%. The viability, T/C [16] was 74.5%, the viability, T/C [30] was 42.8% and the viability, T/C [31] was 58.7%. The viability, T/C [32] was 59.9%, the viability, T/C [33] was 23.5% and the viability, T/C [19] was 48.8%. For the same molecule, the viability, T/C [20] was 58.4%, the viability, T/C [34] was 61.7% and the viability, T/C [35] was 62.8%. For the same molecule, the viability, T/C [36] was 60.2%, the viability, T/C [37] was 29.9% and the viability, T/C [38] was 89.7%. It also gave a viability, T/C [39] of 66.9%, a viability, T/C [40] of 74.8% and a viability, T/C [41] of 61.6%. The viability, T/C [42] was 60.6% and the viability, T/C [43] was 23.5%.

`O=C(c1cc(Cc2n[nH]c(=O)c3ccccc23)ccc1F)N1CCN(C(=O)C2CC2)CC1` + CC1OCC2(CCN(c3cnc(Sc4ccnc(N)c4Cl)c(N)n3)CC2)C1N was tested, and the IC50 [1] was greater than 10000 nM, the IC50 [2] was greater than 10000 nM and the IC50 [3] was greater than 10000 nM. It also gave an IC50 [4] greater than 10000 nM, an IC50 [21] greater than 10000 nM and a viability, T/C [7] of 105%. It also gave a viability, T/C [8] of 76.6%, a viability, T/C [22] of 80.4% and a viability, T/C [23] of 87.1%. The viability, T/C [24] was 98.5%, the viability, T/C [25] was 76.4% and the viability, T/C [11] was 83.7%. The viability, T/C [12] was 100%, the viability, T/C [26] was 67.7% and the viability, T/C [27] was 86.6%. For the same molecule, the viability, T/C [28] was 78.1%, the viability, T/C [29] was 95.7% and the viability, T/C [15] was 100%. The viability, T/C [16] was 81.7%, the viability, T/C [30] was 68.3% and the viability, T/C [31] was 66.9%. It also gave a viability, T/C [32] of 66.8%, a viability, T/C [33] of 76.6% and a viability, T/C [19] of 67.5%. For the same molecule, the viability, T/C [20] was 82.2%, the viability, T/C [34] was 70.8% and the viability, T/C [35] was 57.1%. The viability, T/C [36] was 83.7%, the viability, T/C [37] was 98.7% and the viability, T/C [38] was 91.3%. It also gave a viability, T/C [39] of 75.1%, a viability, T/C [40] of 66.7% and a viability, T/C [41] of 57.9%. The viability, T/C [42] was 73% and the viability, T/C [43] was 65.8%.

`CCN1CCN(Cc2ccc(Nc3ncc(F)c(-c4cc(F)c5nc(C)n(C(C)C)c5c4)n3)nc2)CC1` + COc1cc2nc(C)nc(NC(C)c3cc(N)cc(C(F)(F)F)c3)c2cc1OC1CCOC1 gave an IC50 [1] of 526 nM, an IC50 [2] of 391 nM and an IC50 [3] of 391 nM. For the same molecule, the IC50 [4] was 471 nM, the IC50 [21] was 44.6 nM and the viability, T/C [5] was 76.9%. It also gave a viability, T/C [6] of 78.5%, a viability, T/C [7] of 77.2% and a viability, T/C [8] of 74.5%. It also gave a viability, T/C [22] of 62.1%, a viability, T/C [23] of 34.7% and a viability, T/C [9] of 83.8%. For the same molecule, the viability, T/C [10] was 56%, the viability, T/C [11] was 72.3% and the viability, T/C [12] was 98.2%. The viability, T/C [26] was 54.8%, the viability, T/C [27] was 29% and the viability, T/C [13] was 51.5%. For the same molecule, the viability, T/C [14] was 80.2%, the viability, T/C [15] was 77.6% and the viability, T/C [16] was 61.8%. For the same molecule, the viability, T/C [30] was 55.1%, the viability, T/C [31] was 30.1% and the viability, T/C [17] was 69.3%. For the same molecule, the viability, T/C [18] was 51%, the viability, T/C [19] was 48.9% and the viability, T/C [20] was 67.2%. For the same molecule, the viability, T/C [34] was 73.8%, the viability, T/C [35] was 27.4% and the viability, T/C (second compound 10 µM, first compound 0.00316 µM) was 84%. The viability, T/C (second compound 10 µM, first compound 0.01 µM) was 58%, the viability, T/C [38] was 64.8% and the viability, T/C [39] was 38.3%. It also gave a viability, T/C [40] of 20.2% and a viability, T/C [41] of 19.4%.

From PubChem BioAssay AID1963872 (Molecular Pharmacology Branch, DTP, NCI, 2024)
